Measured values as given in US9034877B2 (Wayne State University, priority 2009, dated 2015).
“Also recorded” adds a separate entry of the source.

Key:
hD3 receptor = target: T1, hD3 receptor (Homo sapiens, UniProt P35462); assay: Stimulation of [35S]GTPγS binding, hD3 receptor expressed in CHO cells; assay type: biochemical
T1 construct: expressed in transfected cells; host or cells: CHO

reserpinized rats = assay: Reversal of reserpine-induced hypolocomotion in rats; assay type: in vivo, rat; details: 10 μMol/kg; for Reversal of reserpine-induced hypolocomotion (horizontal locomotor activity): (−)19b i.p., ropinirole s.c., 18 h after reserpine 5 mg/kg s.c., 6 h
Text: Administration of reserpine induces catalepsy in rodents primarily by blocking the vesicular monoamine trasporter (VMAT) which helps in the internalization of monoamines into vesicles, resulting in metabolism of unprotected monoamines in the cytosol that ultimately causes depletion of monoamines in the synapse of the peripheral sympathetic nerve terminals. The ability of the compound (-)-19b to reverse the reserpine induced hypolocomotion was investigated. Ropinirole was used as standard reference compound in this study. Reserpine (5.0 mg/kg, s.c.) or saline (s.c.) were administered 18 h before the injection of drug or vehicle (i.p.). The rats were placed individually in chambers for 1 h for acclimatization purpose before the administration of the test drug, standard drug or vehicle. Immediately after administration of drug or vehicle, animals were individually placed in […] animal activity monitor chamber (45×30×20 cm) (AccuScan Instruments, Inc. Columbus, Ohio) to start measuring locomotor activity. Locomotion was monitored for 6 h. Consecutive interruption of two infrared beams situated 24 cm apart and 4 cm above the cage floor in the monitor chamber recorded movement. The data were presented as horizontal counts (HACTV). The effect of the individual doses of drugs on locomotor activity was compared with respect to saline treated controls (mean±S.E.M.). The data were analyzed by one way analysis of variance (ANOVA) followed by Dunnett's post-hoc test.

6-OHDA lesioned rats = assay: Rotational experiment with 6-OHDA unilaterally lesioned rats; assay type: in vivo, rat
[1] = background statement; cited from earlier work

T1 sequence (P35462 whole entry): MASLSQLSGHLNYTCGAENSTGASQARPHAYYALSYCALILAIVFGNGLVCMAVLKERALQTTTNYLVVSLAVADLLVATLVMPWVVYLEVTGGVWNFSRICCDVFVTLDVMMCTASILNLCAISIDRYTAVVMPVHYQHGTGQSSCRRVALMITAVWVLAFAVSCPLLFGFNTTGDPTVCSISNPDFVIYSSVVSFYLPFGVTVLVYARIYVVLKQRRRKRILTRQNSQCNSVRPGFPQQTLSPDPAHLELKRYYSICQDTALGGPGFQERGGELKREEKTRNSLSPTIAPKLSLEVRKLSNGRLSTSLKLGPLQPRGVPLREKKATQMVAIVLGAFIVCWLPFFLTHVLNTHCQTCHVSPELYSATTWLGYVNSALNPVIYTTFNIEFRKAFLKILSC

Compound	Agonism at D3 compared with dopamine (hD3 receptor)	Reversal of reserpine-induced hypolocomotion (horizontal locomotor activity) (reserpinized rats)	Rotational activity at the higher dose (6-OHDA lesioned rats; 1 μMol/kg (0.61 mg/kg), 11 h)	Activity in animal experiments [1]	Duration of action in reserpinized rats (reserpinized rats; compared with (−)19b)	Rotations and duration of action (6-OHDA lesioned rats; 5 μMol/kg)	Effect on rotations compared to vehicle (Dunnett) (6-OHDA lesioned rats; (−)19b two doses i.p., ropinirole)
CCCN(CCN1CCN(c2ccnc3c(O)cccc23)CC1)C1CCc2c(O)cccc2C1 (single isomer, unassigned; (-)) [Compound (−)19b, (−)-4-(4-(2-((5-hydroxy-1,2,3,4-tetrahydronaphthalen-2-yl) (propyl)amino)ethyl)piperazin-1-yl)quinolin-8-ol]	full or near-complete agonism	highly efficacious; also recorded: significantly different	remained high at the termination of the experiments	–	–	–	–
C#CCNCc1ccc(O)c2ncccc12 [Compound M30, 5-((prop-2-ynylamino)methyl)quinolin-8-ol]	–	–	–	antioxidant and neuroprotective	–	–	–
OCCN1CCN(Cc2ccc(O)c3ncccc23)CC1 [VK 28, 5-((4-(2-hydroxyethyl)piperazin-1-yl)methyl)quinolin-8-ol]	–	–	–	antioxidant and neuroprotective	–	–	–
CCCN(CCC)CCc1cccc2c1CC(=O)N2 [ropinirole, reference compound]	full or near-complete agonism	significantly different	–	–	much shorter duration of action	much less rotations with shorter duration of action	significant
